Substitutions are numbered along the chain they refer to.
Key:
M327I-mutant Menin = biological target: T1, M327I-mutant Menin (Homo sapiens, UniProt O00255, M322I); assay: competitive MLL1 fluorescence polarization (FP) binding assay, displacement of MLL1 peptide
T1 construct: made in house; host or cells: E. coli BL21-DE3 Rosetta
T1 sequence (O00255 1-615 isoform O00255-1 M327I): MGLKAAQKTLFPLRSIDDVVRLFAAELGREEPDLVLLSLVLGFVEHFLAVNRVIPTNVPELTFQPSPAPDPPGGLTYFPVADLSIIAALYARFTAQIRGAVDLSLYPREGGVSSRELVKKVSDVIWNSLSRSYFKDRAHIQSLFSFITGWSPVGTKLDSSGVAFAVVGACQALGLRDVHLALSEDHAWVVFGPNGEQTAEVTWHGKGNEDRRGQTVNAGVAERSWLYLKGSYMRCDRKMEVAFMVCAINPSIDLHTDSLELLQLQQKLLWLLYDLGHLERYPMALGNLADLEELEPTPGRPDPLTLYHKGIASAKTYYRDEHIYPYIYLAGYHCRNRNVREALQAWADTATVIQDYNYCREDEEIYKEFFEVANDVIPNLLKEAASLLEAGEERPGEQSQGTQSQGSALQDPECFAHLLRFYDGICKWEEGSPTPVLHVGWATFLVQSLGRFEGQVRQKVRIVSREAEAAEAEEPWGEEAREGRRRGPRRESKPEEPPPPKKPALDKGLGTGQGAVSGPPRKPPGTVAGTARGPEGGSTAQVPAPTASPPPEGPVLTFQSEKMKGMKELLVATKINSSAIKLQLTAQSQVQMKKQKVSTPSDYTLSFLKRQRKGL
Protocol: (§1) The following peptides were synthesized by GenScript: N-terminal FITC-conjugated MLL14-43(C-A) peptide probe ([…]) with a C-A modification that improves binding to Menin^19, MLL14-43(C-A) ([…]) and MLL14-43(WT) ([…]). N-terminally FITC-labelled and unmodified MLL2 peptides (MLL2(15-48) […]) were synthesized at Genscript. To derive the FITC-MLL14-43(C-A) peptide Kd. FITC-conjugated MLL14-43(C-A) peptide probe at final concentration of 1 nM was mixed with increasing concentration of purified StrepII-Avi-TEV-Menin (5 μM final top concentration, 2-fold, 23-point dilution and a buffer control) in an assay buffer (50 mM Tris pH 7.5, 200 mM NaCl, 0.1% Pluronic F-68 solution (Sigma)) in 384-well microplates at 15 μL assay volume (Corning, 4514) and incubated for 30 min at room temperature (RT). For all assays change in fluorescence polarization was monitored using a PHERAstar FS microplate reader (BMG Labtech). The FITC-conjugated MLL14-43(C-A) peptide Kd was obtained from a fit in GraphPad Prism 9 using one site total model and averaged from three independent runs with three replicates (n=3, FIG. 8). In competitive titration experiments Menin proteins (1 nM WT, 1 nM M327I or 3 nM for T349M) and 1 nM FITC-conjugated MLL14-43(C-A) peptide probe were incubated in an assay buffer for 30 min. SNDX-5613 was then dispensed to 384-well microplate (Corning, 4514) containing 15 μL of the assay mix using D300e Digital Dispenser (HP) and normalized to 1% DMSO followed by 90 min incubation. The fluorescence polarization was monitored by PHERAstar FS microplate reader (BMG Labtech). The MLL14-43(WT) and MLL14-43(C-A) peptide titrations were performed by addition of 7.5 μL of 2-fold 23-point serial dilution into 7.5 μL of assay mix with the final concentrations of 1 nM FITC-conjugated MLL4-43 peptide probe, 1 nM WT Menin or 1 nM Menin M327I or 3 nM Menin T349M in assay buffer. The fluorescence polarization was monitored by PHERAstar FS microplate reader (BMG Labtech). For analysis of the competitive titration experiments the last 10 cycles of the data were averaged to obtain technical replicates. Data from three independent replicates (n=3) was plotted and IC50 values estimated using variable slope equation in GraphPad Prism 9. The calculation of Ki values was performed using Ki calculator available at websites.umich.edu/˜shaomengwanglab/software/calc_ki/index.html^23.

T349M-mutant Menin = biological target: T2, T349M-mutant Menin (Homo sapiens, UniProt O00255, T344M); assay: as above
T2 construct: made in house; host or cells: E. coli BL21-DE3 Rosetta
T2 sequence (O00255 1-615 isoform O00255-1 T349M): T1 sequence (O00255 1-615 isoform O00255-1 M327I) with I327M, T349M
Protocol: as §1

[1] = biological target: T3, M327I and T349M-mutant Menin (Homo sapiens, UniProt O00255, M322I); assay: isothermal titration calorimetry (ITC); assay type: binding; conditions: MEN1-M327I compared to MEN1-WT
T3 sequence (O00255 1-615 isoform O00255-1 M327I): T1 sequence (O00255 1-615 isoform O00255-1 M327I)
Protocol: (§2) All calorimetric experiments were carried out in ITC buffer (25 mM Hepes (pH 7.5), 200 mM NaCl, 1.0 mM TCEP) at 25° C. using an Affinity ITC from TA Instruments (New Castle, DE) equipped with autosampler. SNDX-5613 was dissolved in DMSO and diluted with the ITC buffer to final concentrations (50-200 μM. 1% DMSO). Protein sample was adjusted to contain 1% DMSO final concentration. The calorimetric cell, containing buffer or Menin (10 μM WT Menin, 5 μM M327I Menin, or 10 μM T349M Menin) was titrated by injecting 2.5 μl of SNDX-5613 solution with the concentration of 100 μM, 50 μM or 200 μM, respectively, 24 times with stirring speed at 75 rpm. The resulting isotherms were subtracted against buffer runs and fitted with a single-site model to yield thermodynamic parameters of ΔH and ΔS, stoichiometry, and KD using NanoAnalyze software (TA Instruments).

[2] = tested on: M327I and T349M-mutant Menin; assay: isothermal titration calorimetry (ITC); assay type: binding, human; conditions: mutant vs WT Menin
Protocol: as §2

Compound: CNc1nc(NC2CCN(Cc3ccc4c(cc(C#N)n4CC45CC(NC=O)(C4)C5)c3C)CC2)c2cc(CC(F)(F)F)sc2n1 [MI-3454]
- effect of M327I on binding (M327I-mutant Menin; M327I mutant Menin): severely affected
- effect of T349M on binding in the fluorescence polarization assay (T349M-mutant Menin; T349M mutant Menin): less affected

Compound: CCN(C(=O)c1cc(F)ccc1Oc1cncnc1N1CC2(CCN(C[C@H]3CC[C@H](NS(=O)(=O)CC)CC3)CC2)C1)C(C)C [SNDX-5613, revumenib]
- reduction in affinity, isothermal calorimetry [1]: over 50 fold
- change in mutant binding affinities (Kd) determined by isothermal calorimetry [2]: > 50 fold
- increase of IC50-value for MLL-displacement compared to WT Menin (M327I-mutant Menin; M327I mutant vs WT Menin): 51 fold
- reduction in affinity, fluorescence polarization (M327I-mutant Menin; MEN1-M327I compared to MEN1-WT): over 50 fold
- increase of IC50-value for MLL-displacement compared to WT Menin (T349M-mutant Menin; T349M mutant vs WT Menin): 111 fold

From patent US20260185163A1, “MEN1 MUTATIONS AND USES THEREOF” (DANA-FARBER CANCER INSTITUTE, INC., priority 2022, published 2026)
